Numbers after ± are expanded uncertainties.
Assays:
[1] = for viscosity / mass density: 101.33 kPa, Liquid; for surface tension liquid-gas: Pendant drop shape; for mass density: Vibrating tube method
[2] = refractive index (Na D-line) (dimensionless); conditions: 101.33 kPa, Liquid, Standard Abbe refractometry

| viscosity ([1]; 293.15 K) | surface tension liquid-gas ([1]; 298.15 K) | viscosity ([1]; 298.15 K) | surface tension liquid-gas ([1]; 303.15 K) | viscosity ([1]; 303.15 K) | mass density ([1]; 303.15 K) | surface tension liquid-gas ([1]; 308.15 K) | viscosity ([1]; 308.15 K) | mass density ([1]; 308.15 K) | surface tension liquid-gas ([1]; 313.15 K) | viscosity ([1]; 313.15 K) | mass density ([1]; 313.15 K) | surface tension liquid-gas ([1]; 318.15 K) | viscosity ([1]; 318.15 K) | mass density ([1]; 318.15 K) | surface tension liquid-gas ([1]; 323.15 K) | viscosity ([1]; 323.15 K) | mass density ([1]; 323.15 K) | viscosity ([1]; 328.15 K) | mass density ([1]; 328.15 K) | also measured | SMILES |
| --- | --- | --- | --- | --- | --- | --- | --- | --- | --- | --- | --- | --- | --- | --- | --- | --- | --- | --- | --- | --- | --- |
| 587.2 ± 59 mPa·s | 51.25 ± 0.78 mN/m | 420 ± 36 mPa·s | 50.05 ± 0.77 mN/m | 320.1 ± 24 mPa·s | 1136.59 ± 1.1 kg/m3 | 48.85 ± 0.76 mN/m | 245.6 ± 16 mPa·s | 1133.52 ± 1.1 kg/m3 | 47.75 ± 0.75 mN/m | 180.5 ± 9.6 mPa·s | 1130.53 ± 1.1 kg/m3 | 46.4 ± 0.73 mN/m | 140.6 ± 6.1 mPa·s | 1127.58 ± 1.1 kg/m3 | 44.95 ± 0.72 mN/m | 110.4 ± 3.7 mPa·s | 1124.63 ± 1.1 kg/m3 | 91.4 ± 2.4 mPa·s | 1121.67 ± 1.1 kg/m3 | viscosity ([1]; 333.15 K): 72.6 ± 1.4 mPa·s; mass density ([1]; 333.15 K): 1118.72 ± 1.1 kg/m3; viscosity ([1]; 338.15 K): 60.7 ± 1 mPa·s; mass density ([1]; 338.15 K): 1115.77 ± 1.1 kg/m3; viscosity ([1]; 343.15 K): 48.9 ± 0.8 mPa·s; mass density ([1]; 343.15 K): 1112.84 ± 1.1 kg/m3; viscosity ([1]; 348.15 K): 41.3 ± 0.7 mPa·s; mass density ([1]; 348.15 K): 1109.92 ± 1.1 kg/m3; viscosity ([1]; 353.15 K): 35 ± 0.6 mPa·s; mass density ([1]; 353.15 K): 1107.03 ± 1.1 kg/m3; refractive index ([2]; 293.15 K): 1.5093 ± 0.0005; refractive index ([2]; 298.15 K): 1.508 ± 0.0005; refractive index ([2]; 303.15 K): 1.5067 ± 0.0005; refractive index ([2]; 308.15 K): 1.5054 ± 0.0005; refractive index ([2]; 313.15 K): 1.5041 ± 0.0005; refractive index ([2]; 318.15 K): 1.5028 ± 0.0005; refractive index ([2]; 323.15 K): 1.5015 ± 0.0005; refractive index ([2]; 328.15 K): 1.5002 ± 0.0005; refractive index ([2]; 333.15 K): 1.4989 ± 0.0005 | OCCCCCCn1cc[nH+]c1.[Cl-] [1-(6-hydroxyhexyl)imidazolium chloride] |
| 1489.7 ± 200 mPa·s | 32.05 ± 0.59 mN/m | 983.3 ± 120 mPa·s | 30.8 ± 0.58 mN/m | 707 ± 76 mPa·s | 1063.33 ± 0.97 kg/m3 | 29.65 ± 0.57 mN/m | 515.8 ± 49 mPa·s | 1060.6 ± 0.96 kg/m3 | 28.35 ± 0.56 mN/m | 360.3 ± 29 mPa·s | 1057.85 ± 0.96 kg/m3 | 27.3 ± 0.55 mN/m | 271.5 ± 19 mPa·s | 1055.25 ± 0.95 kg/m3 | 25.9 ± 0.54 mN/m | 207.7 ± 12 mPa·s | 1052.52 ± 0.95 kg/m3 | 169.4 ± 8.6 mPa·s | 1049.89 ± 0.94 kg/m3 | viscosity ([1]; 333.15 K): 133 ± 5.5 mPa·s; mass density ([1]; 333.15 K): 1047.18 ± 0.93 kg/m3; viscosity ([1]; 338.15 K): 110.8 ± 3.8 mPa·s; mass density ([1]; 338.15 K): 1044.46 ± 0.93 kg/m3; viscosity ([1]; 343.15 K): 89.4 ± 2.3 mPa·s; mass density ([1]; 343.15 K): 1041.73 ± 0.92 kg/m3; viscosity ([1]; 348.15 K): 76.1 ± 1.6 mPa·s; mass density ([1]; 348.15 K): 1039.05 ± 0.92 kg/m3; viscosity ([1]; 353.15 K): 65.3 ± 1.1 mPa·s; mass density ([1]; 353.15 K): 1036.32 ± 0.91 kg/m3; refractive index ([2]; 293.15 K): 1.5132 ± 0.0005; refractive index ([2]; 298.15 K): 1.5119 ± 0.0005; refractive index ([2]; 303.15 K): 1.5106 ± 0.0005; refractive index ([2]; 308.15 K): 1.5093 ± 0.0005; refractive index ([2]; 313.15 K): 1.508 ± 0.0005; refractive index ([2]; 318.15 K): 1.5067 ± 0.0005; refractive index ([2]; 323.15 K): 1.5054 ± 0.0005; refractive index ([2]; 328.15 K): 1.5041 ± 0.0005; refractive index ([2]; 333.15 K): 1.5028 ± 0.0005 | CCCCn1cc[n+](CCCCCCO)c1.[Cl-] [1-butyl-3-(6-hydroxyhexyl)-1H-imidazolium chloride] |
| 1348.1 ± 180 mPa·s | 42.32 ± 0.69 mN/m | 861.7 ± 100 mPa·s | 41.3 ± 0.68 mN/m | 604.5 ± 61 mPa·s | 1101.74 ± 1.1 kg/m3 | 39.95 ± 0.67 mN/m | 431.3 ± 38 mPa·s | 1098.91 ± 1 kg/m3 | 38.75 ± 0.66 mN/m | 294 ± 21 mPa·s | 1096.23 ± 1 kg/m3 | 37.4 ± 0.64 mN/m | 217.7 ± 13 mPa·s | 1093.53 ± 1 kg/m3 | 36.25 ± 0.63 mN/m | 163.9 ± 8.1 mPa·s | 1090.95 ± 1 kg/m3 | 132.2 ± 5.4 mPa·s | 1088.27 ± 1 kg/m3 | viscosity ([1]; 333.15 K): 102.6 ± 3.2 mPa·s; mass density ([1]; 333.15 K): 1085.63 ± 1 kg/m3; viscosity ([1]; 338.15 K): 84.7 ± 2.1 mPa·s; mass density ([1]; 338.15 K): 1083.07 ± 1 kg/m3; viscosity ([1]; 343.15 K): 67.8 ± 1.2 mPa·s; mass density ([1]; 343.15 K): 1080.43 ± 1 kg/m3; viscosity ([1]; 348.15 K): 57.4 ± 0.9 mPa·s; mass density ([1]; 348.15 K): 1077.84 ± 1 kg/m3; viscosity ([1]; 353.15 K): 49.1 ± 0.8 mPa·s; mass density ([1]; 353.15 K): 1075.27 ± 0.99 kg/m3; refractive index ([2]; 293.15 K): 1.5115 ± 0.0005; refractive index ([2]; 298.15 K): 1.5102 ± 0.0005; refractive index ([2]; 303.15 K): 1.5089 ± 0.0005; refractive index ([2]; 308.15 K): 1.5076 ± 0.0005; refractive index ([2]; 313.15 K): 1.5063 ± 0.0005; refractive index ([2]; 318.15 K): 1.505 ± 0.0005; refractive index ([2]; 323.15 K): 1.5037 ± 0.0005; refractive index ([2]; 328.15 K): 1.5024 ± 0.0005; refractive index ([2]; 333.15 K): 1.5011 ± 0.0005 | CCn1cc[n+](CCCCCCO)c1.[Cl-] [1-ethyl-3-(6-hydroxyhexyl)-1H-imidazolium chloride] |
| 1025.9 ± 130 mPa·s | 49.95 ± 0.77 mN/m | 679.8 ± 72 mPa·s | 48.75 ± 0.76 mN/m | 489.7 ± 46 mPa·s | 1119.49 ± 1.1 kg/m3 | 47.75 ± 0.75 mN/m | 357.6 ± 29 mPa·s | 1116.65 ± 1.1 kg/m3 | 46.65 ± 0.73 mN/m | 249.7 ± 16 mPa·s | 1113.91 ± 1.1 kg/m3 | 45.35 ± 0.72 mN/m | 188 ± 10 mPa·s | 1111.28 ± 1.1 kg/m3 | 43.95 ± 0.71 mN/m | 143.4 ± 6.3 mPa·s | 1108.63 ± 1.1 kg/m3 | 116.6 ± 4.2 mPa·s | 1105.92 ± 1.1 kg/m3 | viscosity ([1]; 333.15 K): 91.2 ± 2.4 mPa·s; mass density ([1]; 333.15 K): 1103.4 ± 1.1 kg/m3; viscosity ([1]; 338.15 K): 75.7 ± 1.6 mPa·s; mass density ([1]; 338.15 K): 1100.78 ± 1 kg/m3; viscosity ([1]; 343.15 K): 60.6 ± 1 mPa·s; mass density ([1]; 343.15 K): 1098.14 ± 1 kg/m3; viscosity ([1]; 348.15 K): 51.3 ± 0.7 mPa·s; mass density ([1]; 348.15 K): 1095.59 ± 1 kg/m3; viscosity ([1]; 353.15 K): 43.8 ± 0.7 mPa·s; mass density ([1]; 353.15 K): 1092.92 ± 1 kg/m3; refractive index ([2]; 293.15 K): 1.5106 ± 0.0005; refractive index ([2]; 298.15 K): 1.5093 ± 0.0005; refractive index ([2]; 303.15 K): 1.508 ± 0.0005; refractive index ([2]; 308.15 K): 1.5067 ± 0.0005; refractive index ([2]; 313.15 K): 1.5054 ± 0.0005; refractive index ([2]; 318.15 K): 1.5041 ± 0.0005; refractive index ([2]; 323.15 K): 1.5028 ± 0.0005; refractive index ([2]; 328.15 K): 1.5015 ± 0.0005; refractive index ([2]; 333.15 K): 1.5002 ± 0.0005 | Cn1cc[n+](CCCCCCO)c1.[Cl-] [3-(6-hydroxyhexyl)-1-methylimidazolium chloride] |

Reference: the NIST ThermoML archive (doi:10.1021/je200589f)
